Assay results as given in the NIST ThermoML archive (doi:10.1021/je700152c).
Numbers after ± are expanded uncertainties.

Assay: molar heat capacity at saturation pressure; xn = mol fraction of the nth substance listed

CCCCn1cc[n+](C)c1.Cc1ccc(S(=O)(=O)[O-])cc1 [1-butyl-3-methylimidazolium tosylate] + O
Details	molar heat capacity [J/K/mol]
187.71 K, Metastable crystal, x1 = 0.83	257.58 ± 2.6
188.37 K, Crystal, x1 = 0.37	129.48 ± 1.5
189.01 K, Crystal, x1 = 0.3	108.8 ± 1.3
189.44 K, Crystal, x1 = 0.83	237.24 ± 2.3
189.61 K, Metastable crystal, x1 = 0.83	259.14 ± 2.6
191.25 K, Crystal, x1 = 0.37	131.12 ± 1.5
191.41 K, Crystal, x1 = 0.83	240.11 ± 2.3
191.51 K, Metastable crystal, x1 = 0.83	260.97 ± 2.6
191.66 K, Crystal, x1 = 0.3	109.86 ± 1.4
193.36 K, Crystal, x1 = 0.83	244.28 ± 2.3
193.41 K, Metastable crystal, x1 = 0.83	262.79 ± 2.6
194.12 K, Crystal, x1 = 0.37	132.64 ± 1.5
194.31 K, Crystal, x1 = 0.3	111.02 ± 1.4
195.3 K, Crystal, x1 = 0.83	250.02 ± 2.3
195.31 K, Metastable crystal, x1 = 0.83	264.88 ± 2.6
196.95 K, Crystal, x1 = 0.3	112.29 ± 1.4
196.98 K, Crystal, x1 = 0.37	134.15 ± 1.5
197.21 K, Metastable crystal, x1 = 0.83	268.01 ± 2.6
197.23 K, Crystal, x1 = 0.83	254.97 ± 2.6
199.09 K, Metastable crystal, x1 = 0.83	272.44 ± 2.6
199.14 K, Crystal, x1 = 0.83	258.88 ± 2.6
199.58 K, Crystal, x1 = 0.3	113.66 ± 1.4
199.84 K, Crystal, x1 = 0.37	135.92 ± 1.5
201 K, Metastable crystal, x1 = 0.83	280.52 ± 2.6
201.17 K, Crystal, x1 = 0.83	262.53 ± 2.6
201.54 K, Crystal, x1 = 0.3	114.83 ± 1.4
201.97 K, Crystal, x1 = 0.37	137.43 ± 1.5
202.83 K, Crystal, x1 = 0.3	115.46 ± 1.4
202.96 K, Metastable crystal, x1 = 0.83	287.56 ± 2.9
203.32 K, Crystal, x1 = 0.83	264.88 ± 2.6
203.36 K, Crystal, x1 = 0.37	138.57 ± 1.5
204.12 K, Crystal, x1 = 0.3	115.99 ± 1.4
204.75 K, Crystal, x1 = 0.37	139.08 ± 1.5
204.92 K, Metastable crystal, x1 = 0.83	289.38 ± 2.9
205.4 K, Crystal, x1 = 0.3	116.63 ± 1.4
205.47 K, Crystal, x1 = 0.83	266.7 ± 2.6
206.15 K, Crystal, x1 = 0.37	140.46 ± 1.5
206.69 K, Crystal, x1 = 0.3	117.05 ± 1.4
206.89 K, Metastable crystal, x1 = 0.83	290.69 ± 2.9
207.55 K, Crystal, x1 = 0.37	141.22 ± 1.6
207.62 K, Crystal, x1 = 0.83	268.53 ± 2.6
207.98 K, Crystal, x1 = 0.3	117.58 ± 1.4
208.85 K, Metastable crystal, x1 = 0.83	291.99 ± 2.9
208.96 K, Crystal, x1 = 0.37	142.1 ± 1.6
209.26 K, Crystal, x1 = 0.3	118 ± 1.4
209.77 K, Crystal, x1 = 0.83	270.61 ± 2.6
210.37 K, Crystal, x1 = 0.37	142.86 ± 1.6
210.55 K, Crystal, x1 = 0.3	118.74 ± 1.4
210.81 K, Metastable crystal, x1 = 0.83	293.03 ± 2.9
211.79 K, Crystal, x1 = 0.37	143.62 ± 1.6
211.84 K, Crystal, x1 = 0.3	119.27 ± 1.4
211.92 K, Crystal, x1 = 0.83	272.7 ± 2.6
212.77 K, Metastable crystal, x1 = 0.83	294.34 ± 2.9
213.13 K, Crystal, x1 = 0.3	120.22 ± 1.4
213.22 K, Crystal, x1 = 0.37	144.25 ± 1.6
214.07 K, Crystal, x1 = 0.83	274.78 ± 2.6
214.41 K, Crystal, x1 = 0.3	121.91 ± 1.4
214.66 K, Crystal, x1 = 0.37	145.26 ± 1.6
214.74 K, Metastable crystal, x1 = 0.83	295.64 ± 2.9
215.69 K, Crystal, x1 = 0.3	123.6 ± 1.5
216.09 K, Crystal, x1 = 0.37	146.27 ± 1.6
216.21 K, Crystal, x1 = 0.83	276.87 ± 2.6
216.7 K, Metastable crystal, x1 = 0.83	296.68 ± 2.9
216.97 K, Crystal, x1 = 0.3	125.51 ± 1.5
217.52 K, Crystal, x1 = 0.37	148.16 ± 1.6
218.24 K, Crystal, x1 = 0.3	127.73 ± 1.5
218.36 K, Crystal, x1 = 0.83	278.69 ± 2.6
218.66 K, Metastable crystal, x1 = 0.83	297.99 ± 2.9
218.93 K, Crystal, x1 = 0.37	150.81 ± 1.6
219.5 K, Crystal, x1 = 0.3	130.37 ± 1.5
220.33 K, Crystal, x1 = 0.37	154.98 ± 1.6
220.5 K, Crystal, x1 = 0.83	280.78 ± 2.6
220.62 K, Metastable crystal, x1 = 0.83	299.29 ± 2.9
220.76 K, Crystal, x1 = 0.3	133.97 ± 1.5
221.7 K, Crystal, x1 = 0.37	161.54 ± 1.8
222 K, Crystal, x1 = 0.3	138.72 ± 1.6
222.58 K, Metastable crystal, x1 = 0.83	300.59 ± 2.9
222.65 K, Crystal, x1 = 0.83	282.87 ± 2.6
223.04 K, Crystal, x1 = 0.37	170.5 ± 1.8
223.23 K, Crystal, x1 = 0.3	144.64 ± 1.6
224.35 K, Crystal, x1 = 0.37	182.11 ± 1.9
224.44 K, Crystal, x1 = 0.3	151.62 ± 1.7
224.54 K, Metastable crystal, x1 = 0.83	301.9 ± 2.9
224.8 K, Crystal, x1 = 0.83	284.95 ± 2.9
225.63 K, Crystal, x1 = 0.3	159.55 ± 1.7
225.63 K, Crystal, x1 = 0.37	195.24 ± 2
226.5 K, Metastable crystal, x1 = 0.83	303.2 ± 2.9
226.79 K, Crystal, x1 = 0.3	169.18 ± 1.8
226.88 K, Crystal, x1 = 0.37	210.13 ± 2.1
226.96 K, Crystal, x1 = 0.83	286.78 ± 2.9
227.92 K, Crystal, x1 = 0.3	180.91 ± 1.9
228.08 K, Crystal, x1 = 0.37	225.52 ± 2.3
228.46 K, Metastable crystal, x1 = 0.83	304.76 ± 2.9
229.02 K, Crystal, x1 = 0.3	196.03 ± 2
229.14 K, Crystal, x1 = 0.83	288.6 ± 2.9
229.24 K, Crystal, x1 = 0.37	246.35 ± 2.4
230.06 K, Crystal, x1 = 0.3	216.44 ± 2.2
230.36 K, Crystal, x1 = 0.37	271.97 ± 2.7
230.42 K, Metastable crystal, x1 = 0.83	306.33 ± 2.9
231.05 K, Crystal, x1 = 0.3	243.4 ± 2.4
231.35 K, Crystal, x1 = 0.83	290.43 ± 2.9
231.41 K, Crystal, x1 = 0.37	306.67 ± 3
231.97 K, Crystal, x1 = 0.3	279.14 ± 2.9
232.38 K, Metastable crystal, x1 = 0.83	307.89 ± 2.9
232.4 K, Crystal, x1 = 0.37	350.72 ± 3.4
232.82 K, Crystal, x1 = 0.3	325.66 ± 3.3
233.32 K, Crystal, x1 = 0.37	386.68 ± 3.5
233.59 K, Crystal, x1 = 0.3	384.24 ± 3.9
233.59 K, Crystal, x1 = 0.83	291.21 ± 2.9
234.25 K, Crystal, x1 = 0.37	311.22 ± 3.5
234.29 K, Crystal, x1 = 0.3	455.08 ± 4.7
234.34 K, Metastable crystal, x1 = 0.83	309.46 ± 2.9
234.92 K, Crystal, x1 = 0.3	526.56 ± 4.9
235.39 K, Crystal, x1 = 0.37	181.61 ± 2.1
235.5 K, Crystal, x1 = 0.3	534.91 ± 5.8
235.86 K, Crystal, x1 = 0.83	290.16 ± 2.9
236.15 K, Crystal, x1 = 0.3	325.13 ± 5.4
236.31 K, Metastable crystal, x1 = 0.83	310.24 ± 2.9
236.7 K, Crystal, x1 = 0.37	181.73 ± 1.9
237.09 K, Crystal, x1 = 0.3	171.82 ± 2.3
238 K, Crystal, x1 = 0.37	183.25 ± 1.9
238.22 K, Crystal, x1 = 0.83	290.95 ± 2.9
238.25 K, Crystal, x1 = 0.3	170.34 ± 1.8
238.27 K, Metastable crystal, x1 = 0.83	311.54 ± 2.9
239.3 K, Crystal, x1 = 0.37	184.76 ± 1.9
239.4 K, Crystal, x1 = 0.3	171.4 ± 1.8
240.23 K, Metastable crystal, x1 = 0.83	313.11 ± 2.9
240.46 K, Crystal, x1 = 0.83	293.81 ± 2.9
240.56 K, Crystal, x1 = 0.3	172.98 ± 1.8
240.6 K, Crystal, x1 = 0.37	186.27 ± 1.9
241.71 K, Crystal, x1 = 0.3	174.78 ± 1.8
241.9 K, Crystal, x1 = 0.37	188.17 ± 2
242.19 K, Metastable crystal, x1 = 0.83	315.19 ± 2.9
242.68 K, Crystal, x1 = 0.83	297.2 ± 2.9
242.86 K, Crystal, x1 = 0.3	176.47 ± 1.9
243.19 K, Crystal, x1 = 0.37	189.93 ± 2
244.01 K, Crystal, x1 = 0.3	178.27 ± 1.9
244.14 K, Metastable crystal, x1 = 0.83	317.28 ± 2.9
244.48 K, Crystal, x1 = 0.37	191.7 ± 2
244.87 K, Crystal, x1 = 0.83	300.59 ± 2.9
245.15 K, Crystal, x1 = 0.3	179.96 ± 1.9
245.76 K, Crystal, x1 = 0.37	193.72 ± 2
246.08 K, Metastable crystal, x1 = 0.83	319.62 ± 3.1
